ChEMBL document CHEMBL1147011, “Antimalarial effect of bis-pyridinium salts, N,N'-hexamethylenebis(4-carbamoyl-1-alkylpyridinium bromide)” (Bioorg Med Chem Lett, 2006)

Columns and labels:
Plasmodium falciparum = test: Antimalarial activity against chloroquine-sensitive Plasmodium falciparum FCR3; format: functional, organism-based
FM3A [1] = test: Selectivity ratio of EC50s against Plasmodium falciparum FCR3 to mice (Mus musculus) FM3A cells; format: functional
FM3A [2] = test: Cytotoxicity against mouse FM3A cell line; format: functional, cell-based

EC50 (Plasmodium falciparum) | SMILES | Ratio EC50 (FM3A [1]) | EC50 (FM3A [2])
0.01 µM | CCCCCCCC[n+]1ccc(C(=O)NCCCCCCNC(=O)c2cc[n+](CCCCCCCC)cc2)cc1.[Br-].[Br-] | 580 | 5.8 µM
0.04 µM | CCCCCCCCCC[n+]1ccc(C(=O)NCCCCCCNC(=O)c2cc[n+](CCCCCCCCCC)cc2)cc1.[Br-].[Br-] | 11 | 0.45 µM
0.052 µM | CCCCCC[n+]1ccc(C(=O)NCCCCCCNC(=O)c2cc[n+](CCCCCC)cc2)cc1.[Br-].[Br-] | >333 | > 17.3 µM
0.13 µM | CCCCCCCCCCCC[n+]1ccc(C(=O)NCCCCCCNC(=O)c2cc[n+](CCCCCCCCCCCC)cc2)cc1.[Br-].[Br-] | 3 | 0.42 µM
1.1 µM | CCCCCCCCCCCCCC[n+]1ccc(C(=O)NCCCCCCNC(=O)c2cc[n+](CCCCCCCCCCCCCC)cc2)cc1.[Br-].[Br-] | 3 | 2.8 µM
3.5 µM | CCCCCCCCCCCCCCCC[n+]1ccc(C(=O)NCCCCCCNC(=O)c2cc[n+](CCCCCCCCCCCCCCCC)cc2)cc1 | – | 2.2 µM
– | CCN(CC)CCCC(C)Nc1ccnc2cc(Cl)ccc12 (centres undefined) [CHLOROQUINE] | 1800 | –
– | C=C[C@H]1CN2CC[C@H]1C[C@H]2[C@H](O)c1ccnc2ccc(OC)cc12 [QUININE] | 910 | –
